Measured values reported in US20260014178A1, “COMPOSITIONS AND USES THEREOF” (Optibiotix Limited, priority 2022, published 2026).

Assays:
gut microbiome [1] = test: Non pH-controlled anaerobic faecal cultures, gas production; type: cell-based; conditions: 6 donors, FIG. 1
Protocol: Non pH-controlled, anaerobic, faecal cultures were investigated to evaluate the rate of gas production and cumulative gas production over 24 h in the presence of each test substrate.
(§1) All carbohydrates were tested in parallel, using the same faecal sample from a healthy donor. Fermentations were repeated using the faecal samples of each of 6 donors. Faeces in the absence of test substrate were used as the negative control in each run.

gut microbiome [2] = test: pH-controlled anaerobic faecal cultures, organic acid production; type: cell-based; conditions: FIG. 3
Protocol: pH-controlled, anaerobic, faecal cultures were carried out to evaluate the impact of each test carbohydrate on gut microbiome composition and activity (organic acid production). The test carbohydrates were as follows: Inulin, Fructooligosaccharides (FOS), Xylooligosaccharides (XOS), gentiooligosaccharides (GeOS) and cellobiose.
as §1

## O=C[C@H](O)[C@@H](O)[C@H](O[C@@H]1O[C@H](CO)[C@@H](O)[C@H](O)[C@H]1O)[C@H](O)CO [Cellobiose, cellobiose]
Gut microbiome [1]
  rate of gas production: significantly higher compared to all test substrates
Gut microbiome [2]
  lactate production / accumulation: high levels
